Data reported in patent US20170050957A1, “4-AMINO-6-(HETEROCYCLIC)PICOLINATES AND 6-AMINO-2-(HETEROCYCLIC)PYRIMIDINE-4-CARBOXYLATES AND THEIR USE AS HERBICIDES” (Dow AgroSciences LLC, priority 2013, published 2017).
Like-named read-outs stand apart in the source and are kept apart here.

Tests used:
Type in all cases: in vivo
[1] = tested on: giant foxtail (Setaria faberi); assay: Post-emergent Test I herbicidal activity; settings: 4 Kg ai/ha
Experimental: (§1) Post-emergent Test I Seeds test species were obtained from commercial suppliers and planted into a 5″-round pot containing soil-less media mix (metro-mix 360®, Sun Gro Horticulture). Postemergence treatments were planted 8-12 days prior to application and cultured in a greenhouse equipped with supplemental light sources to provide a 16 h photoperiod at 24-29° C. All pots were surface irrigated. Approximately 10 milligrams (mg) of each compound were dissolved in 1.3 mL acetone-DMSO (97:3, v/v) and diluted with 4.1 mL water-isopropanol-crop oil concentrate (78:20:2, v/v/v) containing 0.02% Triton X-155. Treatments were serial diluted with the above formulation solvent to provide 1.85, 0.926, 0.462 and 0.231 mg/mL of test compound delivered in 2.7 mL/pot (roughly equivalent to 4.0, 2.0, 1.0, and 0.5 kg/ha, respectively). Formulated compounds were applied using a DeVilbiss® compressed air sprayer at 2-4 psi. Following treatment, pots were returned to the greenhouse for the duration of the experiment. All pots were sub-irrigated as need to provide optimum growing conditions. All pots were fertilized one time per week by subirrigating with Peters Peat-Lite Special® fertilizer (20-10-20). Phytotoxicity ratings were obtained 10 days after treatment postemergence applications. All evaluations were made visually on a scale of 0 to 100 where 0 represents no activity and 100 represents complete plant death. Visual assessments of plant injury were made based on growth reduction, discoloration, leaf deformity and necrosis

wild oats (Avena fatua) = assay: Post-emergent Test I herbicidal activity; settings: 4 Kg ai/ha
Experimental: as §1

[2] = tested on: barnyardgrass (Echinochloa crus-galli); assay: Post-emergent Test I herbicidal activity; settings: 4 Kg ai/ha
Experimental: as §1

[3] = tested on: sunflower (Helianthus annuus); assay: Post-emergent Test I herbicidal activity; settings: 4 Kg ai/ha
Experimental: as §1

[4] = tested on: Key Broadleaf Weed and Crop Species; assay: Post-emergent Test II herbicidal activity (Table 15); settings: post-emergence, 336 h, 140 g ai/ha, 14 d
Summary of the method: (§2)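 Herbicidal effect scored as percent visual injury, 14 d after post-emergent application. Spray solutions contained acetone, DMSO, isopropyl alcohol, crop oil concentrate and surfactant, applied at 187 L/ha to young plants (1-2 true leaves).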

[5] = tested on: Key Grass and Sedge Weeds as well as Grass Crops; assay: Post-emergent Test II herbicidal activity (Table 16); settings: post-emergence, 336 h, 14 d; for pest or weed control at 35 g/ha: 35 g ai/ha; for pest or weed control at 70 g/ha: 70 g ai/ha; for pest or weed control at 140 g/ha: 140 g ai/ha
Summary of the method: as §2

[6] = Cyperus esculentus, yellow nutsedge (Cyperus esculentus), read-out: Visual Growth Reduction (%) 14 Days After Application, CYPES
[7] = Echinochloa crus-galli, barnyardgrass (Echinochloa crus-galli), read-out: Visual Growth Reduction (%) 14 Days After Application, ECHCG
[8] = Oryza sativa, rice (Oryza sativa), read-out: Visual Growth Reduction (%) 14 Days After Application, ORYSA
[9] = Setaria faberi, giant foxtail (Setaria faberi), read-out: Visual Growth Reduction (%) 14 Days After Application, SETFA
[10] = Triticum aestivum, wheat, spring (Triticum aestivum), read-out: Visual Growth Reduction (%) 14 Days After Application, TRZAS
[11] = Zea mays, maize, corn (Zea mays), read-out: Visual Growth Reduction (%) 14 Days After Application, ZEAMX

Nc1c(F)c(-c2cccc3cc[nH]c23)nc(C(=O)O)c1Cl [Compound 1.48]
Visual Growth Reduction (%) 10 Days After Application SETFA [1]: G (0-29)
Visual Growth Reduction (%) 10 Days After Application AVEFA (wild oats (Avena fatua)): G (0-29)
Visual Growth Reduction (%) 10 Days After Application ECHCG [2]: G (0-29)
Visual Growth Reduction (%) 10 Days After Application HELAN [3]: C (75-84)
pest or weed control at 140 g/ha ([4]; Abutilon theophrasti, velvetleaf (Abutilon theophrasti), read-out: Visual Growth Reduction (%) 14 Days After Application, ABUTH): 0 to 29%
pest or weed control at 140 g/ha ([4]; Amaranthus retroflexus, redroot pigweed (Amaranthus retroflexus), read-out: Visual Growth Reduction (%) 14 Days After Application, AMARE): 0 to 29%
pest or weed control at 140 g/ha ([4]; Brassica napus, oilseed rape, canola (Brassica napus), read-out: Visual Growth Reduction (%) 14 Days After Application, BRSNN): 0 to 29%
pest or weed control at 140 g/ha ([4]; Chenopodium album, lambsquarters (Chenopodium album), read-out: Visual Growth Reduction (%) 14 Days After Application, CHEAL): 60 to 74%
pest or weed control at 140 g/ha ([4]; Euphorbia heterophylla, wild poinsettia (Euphorbia heterophylla), read-out: Visual Growth Reduction (%) 14 Days After Application, EPHHL): 0 to 29%
pest or weed control at 140 g/ha ([4]; Helianthus annuus, sunflower (Helianthus annuus), read-out: Visual Growth Reduction (%) 14 Days After Application, HELAN): 75 to 84%
pest or weed control at 35 g/ha [5, 6]: 0 to 29%
pest or weed control at 70 g/ha [5, 6]: 0 to 29%
pest or weed control at 140 g/ha [5, 6]: 0 to 29%
pest or weed control at 35 g/ha [5, 7]: 0 to 29%
pest or weed control at 70 g/ha [5, 7]: 0 to 29%
pest or weed control at 140 g/ha [5, 7]: 0 to 29%
pest or weed control at 35 g/ha [5, 8]: 0 to 29%
pest or weed control at 70 g/ha [5, 8]: 0 to 29%
pest or weed control at 140 g/ha [5, 8]: 0 to 29%
pest or weed control at 35 g/ha [5, 9]: 0 to 29%
pest or weed control at 70 g/ha [5, 9]: 0 to 29%
pest or weed control at 140 g/ha [5, 9]: 0 to 29%
pest or weed control at 35 g/ha [5, 10]: 0 to 29%
pest or weed control at 70 g/ha [5, 10]: 0 to 29%
pest or weed control at 140 g/ha [5, 10]: 0 to 29%
pest or weed control at 35 g/ha [5, 11]: 0 to 29%
pest or weed control at 70 g/ha [5, 11]: 0 to 29%
pest or weed control at 140 g/ha [5, 11]: 0 to 29%
